Reference: patent EP4671240A1, “SALT CONTAINING AROMATIC RING DERIVATIVE ANTAGONIST, PREPARATION METHOD THEREFOR, AND APPLICATION THEREOF” (Jiangsu Hansoh Pharmaceutical Group Co., Ltd., priority 2023, dated 2024)

What was measured:
Format in all cases: in vitro ADME
CYP450 1A2 = biological target: T1, CYP450 1A2 (Homo sapiens, UniProt P05177); experiment: CYP enzyme single-point inhibition assay, 1A2; conditions: human liver microsomes, single-point method
T1 construct: Human liver microsome incubation system was used; from tissue; host or cells: human liver microsomes
T1 sequence (P05177 1-516): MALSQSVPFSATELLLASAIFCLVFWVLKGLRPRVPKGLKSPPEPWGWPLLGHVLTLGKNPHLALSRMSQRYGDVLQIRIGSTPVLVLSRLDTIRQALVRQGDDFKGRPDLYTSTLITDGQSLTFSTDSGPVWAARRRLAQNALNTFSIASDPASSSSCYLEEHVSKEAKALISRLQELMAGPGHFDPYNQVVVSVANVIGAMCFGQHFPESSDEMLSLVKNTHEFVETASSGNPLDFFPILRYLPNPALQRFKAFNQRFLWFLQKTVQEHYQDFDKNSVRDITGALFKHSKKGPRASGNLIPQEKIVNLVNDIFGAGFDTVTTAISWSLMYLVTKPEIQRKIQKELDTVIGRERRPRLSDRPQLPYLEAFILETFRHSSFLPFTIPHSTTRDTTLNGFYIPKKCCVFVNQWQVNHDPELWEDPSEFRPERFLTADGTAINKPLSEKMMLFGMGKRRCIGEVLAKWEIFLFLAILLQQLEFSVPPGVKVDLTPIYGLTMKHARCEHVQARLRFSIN
Description: (§1) Human liver microsome incubation system was used, and the single-point method was used to quickly predict the inhibition on CYP450 enzyme subtypes (1A2, 2C19, 2D6, 3A4-M, and 3A4-T) by compounds.
(§2) For 2.5 mM NADPH, 4.165 mg of NADPH (reduced nicotinamide adenine dinucleotide phosphate) was weighed and 100 mM phosphate buffer was added to a final volume of 2 mL. For 0.25 mg/mL microsomes, 50 µL of 20 mg/mL microsomes was mixed with […] of 100 mM phosphate buffer evenly.
(§3) The test example compounds were weighed, diluted to 10 mM with DMSO, and then diluted to 100 µM with 100 mM phosphate buffer.
(§4) • 1. Liver microsomes (40 µL), substrate (10 µL), and test compound (10 µL) were added to a 96-well plate, and the mixture was pre-incubated for 3 min. • 2. NADPH (40 µL) was added. • 3. At 20 min, acetonitrile stop solution containing internal standard (300 µL) was added. • 4. The mixture was centrifuged and the sample was loaded.

CYP450 2C19 = biological target: T2, CYP450 2C19 (Homo sapiens, UniProt P33261); experiment: CYP enzyme single-point inhibition assay, 2C19; conditions: human liver microsomes, single-point method
T2 construct: Human liver microsome incubation system was used; from tissue; host or cells: human liver microsomes
Description: as §1, §2, §3, §4

CYP450 2D6 = biological target: T3, CYP450 2D6 (Homo sapiens, UniProt P10635); experiment: CYP enzyme single-point inhibition assay, 2D6; conditions: human liver microsomes, single-point method
T3 construct: Human liver microsome incubation system was used; from tissue; host or cells: human liver microsomes
Description: as §1, §2, §3, §4

[1] = Liver microsomal metabolism stability assay (dog); conditions: compound 1 µM; for half-life at 1 µM: dog liver microsomes 0.5 mg/mL, NADPH/UDPGA, read-out: Dog t1/2; for Dog Remaining rate: dog liver microsomes, 60 min
Description: The objective of this experiment was to detect the stability of the example compounds in liver microsomes of rats, dogs and humans.
Formulation of compound working solution: compound stock solution was added to phosphate buffer to a final concentration of 20 µM.
Dilution was performed with 100 mM phosphate buffer to a final concentration of 0.625 mg/mL.
NADPH (reduced nicotinamide adenine dinucleotide phosphate) and UDPGA (uridine diphosphate glucuronic acid) were weighed, and 100 mM phosphate buffer was added to a final concentration of 20 mM.
1 mg of Alamethicin was weighed, and 200 µL of DMSO was added to formulate a 5 mg/mL solution. Then dilution was performed with phosphate buffer to a final concentration of 50 µg/mL.
Stop solution: cold acetonitrile containing 100 ng/mL labetalol hydrochloride and 400 ng/mL tolbutamide as internal standards.
400 µL of formulated liver microsomes, 25 µL of compound working solution and 25 µL of Alamethicin were added in sequence to a 96-well plate, and the mixture was pre-incubated at 37°C for 10 min. Then 50 µL of formulated NADPH/UDPGA was added to start the reaction and the mixture was incubated at 37°C. The total volume of the reaction system was 500 µL. The final contents of each component are as follows:
• Instrument: Shimadzu LC-30 AD; • Chromatographic column: XBridge® C18 (50*4.6 mm, 5 µm particle size); • Mobile phase: A: 0.1% formic acid solution, B: methanol • Elution gradient: 0.2-1.6 min 5% A to 95% A, 3.0-3.1 min 95% A to 5% A • Run time: 4.0 min.
• Instrument: API5500 liquid chromatography-mass spectrometer, AB Sciex; • Ion source: electrospray ionization source (ESI); • Drying gas: N2, temperature 500°C; • Electrospray voltage: 5000 V; • Detection mode: positive ion detection; • Scan mode: Multiple Reaction Monitoring (MRM) mode.

T2 sequence (P33261 whole entry): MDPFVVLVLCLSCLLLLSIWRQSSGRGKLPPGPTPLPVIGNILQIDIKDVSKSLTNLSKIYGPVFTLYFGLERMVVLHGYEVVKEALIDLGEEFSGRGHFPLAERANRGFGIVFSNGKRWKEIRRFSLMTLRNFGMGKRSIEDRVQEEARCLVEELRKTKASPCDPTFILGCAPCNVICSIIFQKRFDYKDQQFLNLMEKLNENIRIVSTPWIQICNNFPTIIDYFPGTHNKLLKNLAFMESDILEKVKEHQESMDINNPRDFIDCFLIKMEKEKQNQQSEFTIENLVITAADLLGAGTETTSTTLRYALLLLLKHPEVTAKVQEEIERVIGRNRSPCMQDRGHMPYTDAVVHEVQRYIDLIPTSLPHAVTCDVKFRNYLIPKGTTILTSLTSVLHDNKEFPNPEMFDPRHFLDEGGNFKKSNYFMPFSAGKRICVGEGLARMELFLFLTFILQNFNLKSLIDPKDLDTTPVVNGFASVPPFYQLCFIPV
T3 sequence (P10635 whole entry): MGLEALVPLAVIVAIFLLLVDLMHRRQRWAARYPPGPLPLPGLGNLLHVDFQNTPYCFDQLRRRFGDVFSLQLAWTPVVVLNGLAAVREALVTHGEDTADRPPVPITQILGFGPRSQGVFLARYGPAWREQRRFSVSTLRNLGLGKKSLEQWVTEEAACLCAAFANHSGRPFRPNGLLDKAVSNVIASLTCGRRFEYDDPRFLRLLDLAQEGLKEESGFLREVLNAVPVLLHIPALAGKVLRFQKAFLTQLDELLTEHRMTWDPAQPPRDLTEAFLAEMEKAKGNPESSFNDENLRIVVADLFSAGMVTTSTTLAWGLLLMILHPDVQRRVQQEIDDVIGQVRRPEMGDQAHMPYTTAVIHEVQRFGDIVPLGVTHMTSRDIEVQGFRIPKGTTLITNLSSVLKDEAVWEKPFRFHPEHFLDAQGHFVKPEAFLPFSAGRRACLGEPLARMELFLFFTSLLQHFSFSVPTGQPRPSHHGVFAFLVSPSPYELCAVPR

Structure (SMILES)	IC50 (CYP450 1A2)	IC50 (CYP450 2C19)	IC50 (CYP450 2D6)	half-life at 1 µM [1]	Dog Remaining rate [1]
[2H]C([2H])(c1ccc(-c2ccccc2S(=O)(=O)Nc2noc(C)c2Cl)c(COCC)c1)N1C(=O)C2(CCCC2)N=C1CCCC [Example 2, 4'-((2-Butyl-4-oxo-1,3-diazaspiro[4.4]non-1-en-3-yl)methyl-d2)-N-(4-chloro-5-methylisoxazol-3-yl)-2'-(ethoxymethyl)-[1,1'-biphenyl]-2-sulfonamide]	> 100 µM	> 100 µM	> 100 µM	29.9 min	24.6%
CCCCC1=NC2(CCCC2)C(=O)N1Cc1ccc(-c2ccccc2S(=O)(=O)Nc2noc(C)c2Cl)c(COCC)c1 [Example 8, 2-[4-[(2-Butyl-4-oxo-1,3-diazaspiro[4.4]non-1-en-3-yl)methyl]-2-(ethoxymethyl)phenyl]-N-(4-chloro-5-methyl-isoxazol-3-yl)benzenesulfonamide]	> 100 µM	> 100 µM	> 100 µM	28.5 min	23.6%
